pEC50, pKi: −log10 of the molar value. Like-named read-outs stand apart in the source and are kept apart here. Each block holds one compound with its values, some of them ahead of it.
Columns and labels:
[1] = biological target: T1, Delta Opioid Receptor (Rattus norvegicus, UniProt P33533); experiment: Rat brain delta opioid receptor binding assay ([3H]DPDPE or [3H]naltrindole)
T1 construct: the forebrains were homogenized in Tris buffer in a Teflon®-glass homogenizer; from tissue; host or cells: forebrain of male Wistar rats, particulate membrane preparation

[2] = biological target: T2, Delta Opioid Receptor (Mus musculus, UniProt P32300); experiment: NG108-15, 24-well delta opioid receptor binding assay ([3H]naltrindole)
T2 construct: NG108-15 cell membranes were purchased from Applied Cell Sciences (Rockville, Md.); host or cells: NG108-15 cell membranes (purchased)

[3] = biological target: T3, Mu Opioid Receptor (Rattus norvegicus, UniProt P33535); experiment: Rat brain mu opioid receptor binding assay ([3H]DAMGO)
T3 construct: the forebrains were homogenized in Tris buffer in a Teflon®-glass homogenizer; from tissue; host or cells: forebrain of male Wistar rats, particulate membrane preparation

[4] = biological target: δ-opioid receptor (Mus musculus, UniProt P32300); experiment: [35S]GTPγS δ-opioid receptor functional assay (EC50, relative efficacy, % inhibition); assay type: biochemical; parameters: NG108-15 cell membranes were purchased from Applied Cell Sciences (Rockville, Md.); conditions: for inhibition at 10 µM: read-out: GTPγS δ-opioid receptor % Inh @10 μM
[5] = rat forebrain membranes, 0.25 nM [3H]naltrindole, read-out: δ-binding (Naltrindole ligand) Ki
[6] = rat forebrain membranes, ~0.8 nM [3H]DAMGO, read-out: μ-binding Ki
[7] = rat forebrain membranes, ~4 nM [3H]DPDPE, read-out: δ-binding (DPDPE ligand) Ki

T1 sequence (P33533 whole entry): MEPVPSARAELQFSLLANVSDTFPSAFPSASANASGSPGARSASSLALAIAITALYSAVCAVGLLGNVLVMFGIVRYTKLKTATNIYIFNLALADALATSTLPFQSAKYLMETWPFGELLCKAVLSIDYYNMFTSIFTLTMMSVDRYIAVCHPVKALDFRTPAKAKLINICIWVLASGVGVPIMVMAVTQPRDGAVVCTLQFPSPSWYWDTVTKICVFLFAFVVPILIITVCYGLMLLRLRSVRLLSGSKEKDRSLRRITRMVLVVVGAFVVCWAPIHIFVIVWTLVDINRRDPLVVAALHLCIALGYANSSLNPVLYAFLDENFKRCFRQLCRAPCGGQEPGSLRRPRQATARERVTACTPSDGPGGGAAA
T3 sequence (P33535 whole entry): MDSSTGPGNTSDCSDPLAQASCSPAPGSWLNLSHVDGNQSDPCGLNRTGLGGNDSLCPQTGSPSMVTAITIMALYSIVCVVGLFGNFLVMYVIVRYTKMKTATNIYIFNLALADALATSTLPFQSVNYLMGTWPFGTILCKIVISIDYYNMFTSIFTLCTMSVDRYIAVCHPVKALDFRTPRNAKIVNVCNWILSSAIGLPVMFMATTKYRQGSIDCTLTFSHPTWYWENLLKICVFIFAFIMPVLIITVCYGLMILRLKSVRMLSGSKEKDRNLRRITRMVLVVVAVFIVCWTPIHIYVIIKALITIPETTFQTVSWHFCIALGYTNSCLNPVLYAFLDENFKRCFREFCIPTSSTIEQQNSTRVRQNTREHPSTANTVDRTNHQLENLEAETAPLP
Chain of δ-opioid receptor (P32300 whole entry): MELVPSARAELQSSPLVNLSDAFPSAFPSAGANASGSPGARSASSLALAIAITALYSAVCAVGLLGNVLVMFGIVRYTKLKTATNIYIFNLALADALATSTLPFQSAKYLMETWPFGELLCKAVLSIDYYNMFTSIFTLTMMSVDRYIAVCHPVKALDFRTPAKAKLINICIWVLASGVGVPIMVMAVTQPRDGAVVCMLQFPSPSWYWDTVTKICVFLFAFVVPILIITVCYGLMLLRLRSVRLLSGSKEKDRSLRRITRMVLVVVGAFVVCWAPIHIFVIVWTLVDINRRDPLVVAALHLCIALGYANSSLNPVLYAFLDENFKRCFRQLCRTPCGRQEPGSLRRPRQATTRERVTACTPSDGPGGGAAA
T2 sequence (P32300 whole entry): as above

Structure (SMILES): COc1ccc(Oc2cc(-c3ccsc3)ccc2NC[C@@H]2CCCN2)cc1 [Cpd 41]
pKi [1, 5]: 6.54

Structure (SMILES): COC(=O)c1ccc(Oc2cc(-c3ccccc3)ccc2NC[C@@H]2CCCN2)cc1 [Cpd 20]
pKi [1, 5]: 6.11

Structure (SMILES): CCN(C[C@@H]1CCCN1)c1ccc(-c2cncc(C#N)c2)cc1Oc1ccc(OC)cc1 [Cpd 52]
pKi [2]: 8.03

Structure (SMILES): O=C(O)c1ccc(Oc2cc(-c3ccccc3)ccc2NC[C@@H]2CCCN2)cc1 [Cpd 31, (S)-4-{4-[(Pyrrolidin-2-ylmethyl)-amino]-biphenyl-3-yloxy}-benzoic acid]
pKi [1, 5]: 5.11 | pKi [3, 6]: < 5.00

Structure (SMILES): CCN(CC)C(=O)c1ccc(Oc2cc(-c3ccccc3)ccc2NC[C@@H]2CCCN2)cc1 [Cpd 33, (S)-N,N-Diethyl-4-{4-[(pyrrolidin-2-ylmethyl)-amino]-biphenyl-3-yloxy}-benzamide]
pKi [1, 5]: 6.55 | pKi [3]: 5.03

Structure (SMILES): COc1ccc(Oc2ccc(N(CC3CNC3)CC3CNC3)c(Oc3ccc(OC)cc3)c2)cc1 [Cpd 59]
pKi [1, 7]: 5.64 | pKi [3, 6]: < 5.00

Structure (SMILES): COc1ccc(Oc2cc(CCc3ccccc3)ccc2NC[C@@H]2CCCN2)cc1 [Cpd 5]
pKi [1, 5]: 6.62

Structure (SMILES): CCN(CC)C(=O)c1cccc(CCc2ccc(NC[C@@H]3CCCN3)c(Oc3ccc(OC)cc3)c2)c1 [Cpd 8, (S)-N,N-Diethyl-3-(2-{3-(4-methoxy-phenoxy)-4-[(pyrrolidin-2-ylmethyl)-amino]-phenyl}-ethyl)-benzamide]
pKi [1, 5]: 6.90 | pKi [3]: 5.05

pKi [1, 7]: 6.31 | pKi [3, 6]: 5.01
Structure (SMILES): COc1ccc(Oc2cc(-c3noc(=O)[nH]3)ccc2NC[C@@H]2CCCN2)cc1 [Cpd 48, (S)-3-{3-(4-Methoxy-phenoxy)-4-[(pyrrolidin-2-ylmethyl)-amino]-phenyl}-4H-[1,2,4]oxadiazol-5-one]

pKi ([2]; NG108-15 cell membranes, ~0.2 nM [3H]naltrindole, read-out: δ-binding NG108 cell membrane Ki): 7.11
Structure (SMILES): CCN(C[C@@H]1CCCN1)c1ccc(-c2cncnc2)cc1Oc1ccc(OC)cc1 [Cpd 51]

Structure (SMILES): COc1ccc(Oc2cc(-c3cncc(C)c3)ccc2NC[C@@H]2C[C@@H](F)CN2)cc1 [Cpd 28]
pEC50 [4]: 6.78 | GTPγS δ-opioid receptor Rel Efficacy [4]: 0.8756 | pKi [1]: 8.17 | pKi [3]: 5.33

Structure (SMILES): COc1ccc(Oc2ccc(NCC3CNC3)c(Oc3ccc(OC)cc3)c2)cc1 [Cpd 58]
pKi [1, 7]: 6.15 | pKi [3, 6]: < 5.00

Structure (SMILES): COc1ccc(Oc2ccc(NC3CC4CCC(C3)N4)c(Oc3ccc(OC)cc3)c2)cc1 (centres unmarked) [Cpd 57]
pKi [1, 7]: 5.84 | pKi [3, 6]: < 5.00

Structure (SMILES): COc1ccc(Oc2ccc(NC3CCCNC3)c(Oc3ccc(OC)cc3)c2)cc1 (racemic) [Cpd 54]
pKi [1, 7]: 6.31 | pKi [3]: 5.01

Structure (SMILES): COc1ccc(Oc2cc(-c3ccc4ccccc4c3)ccc2NC[C@@H]2CCCN2)cc1 [Cpd 36, (S)-[2-(4-Methoxy-phenoxy)-4-naphthalen-2-yl-phenyl]-pyrrolidin-2-ylmethyl-amine]
pKi [1, 5]: 6.54 | pKi [3, 6]: < 5.00

Structure (SMILES): COc1ccc(Oc2cc(-c3cncc(OC)c3)ccc2NC[C@@H]2C[C@@H](F)CN2)cc1 [Cpd 27]
pKi [1, 5]: 6.00

Structure (SMILES): COc1ccc(Oc2ccc(NC[C@@H](N)CO)c(Oc3ccc(OC)cc3)c2)cc1 [Cpd 55]
pKi [1, 7]: 5.86

Structure (SMILES): COc1ccc(Oc2cc(-c3cccc4ccccc34)ccc2NC[C@@H]2CCCN2)cc1 [Cpd 37]
pKi [1, 5]: 6.52

Structure (SMILES): NC(=O)c1cccc(Oc2cc(-c3ccccc3)ccc2NC[C@@H]2CCCN2)c1 [Cpd 30]
pEC50 [4]: 5.99 | GTPγS δ-opioid receptor Rel Efficacy [4]: 0.2668 | inhibition at 10 µM [4]: 36.5% | pKi [1, 5]: 6.90 | pKi [3]: 5.24

Structure (SMILES): COc1ccc(Oc2cc(-c3ccccc3)ccc2N2CCN(C)CC2)cc1 [Cpd 47, 1-[3-(4-Methoxy-phenoxy)biphenyl-4-yl]-4-methyl-piperazine]
pKi [1, 5]: 5.65 | pKi [3, 6]: < 5.00

Structure (SMILES): COc1ccc(Oc2ccc(NC[C@@H]3CCCN3)c(Oc3ccc(OC)cc3)c2)cc1 [Cpd 53, (S)-[2,4-Bis-(4-methoxy-phenoxy)-phenyl]-pyrrolidin-2-ylmethyl-amine]
pEC50 [4]: 6.50 | inhibition at 10 µM [4]: 28.2% | pKi [1, 7]: 6.98 | pKi [3, 6]: < 5.00

Structure (SMILES): CCN(CC)C(=O)c1ccc(NC[C@@H]2CCCN2)c(Oc2ccccc2)c1 [Cpd 9, (S)-N,N-Diethyl-3-phenoxy-4-[(pyrrolidin-2-ylmethyl)-amino]-benzamide]
pKi [1, 5]: 5.99 | pKi [3, 6]: < 5.00

Structure (SMILES): COc1ccc(Oc2ccc(NCC3CCCNC3)c(Oc3ccc(OC)cc3)c2)cc1 (racemic) [Cpd 61]
pEC50 [4]: 5.39 | inhibition at 10 µM [4]: 16.1% | pKi [1, 7]: 6.95 | pKi [3, 6]: < 5.00

Structure (SMILES): COc1ccc(Oc2cc(-c3ccccc3)ccc2NC[C@@H]2CCCN2)cc1 [Cpd 35, (S)-[3-(4-Methoxy-phenoxy)-biphenyl-4-yl]-pyrrolidin-2-ylmethyl-amine]
inhibition at 10 µM [4]: 1% | pKi [1]: 7.54 | pKi ([3]; read-out: μ-binding Ki): < 5.00

Structure (SMILES): CCN(CC)C(=O)c1ccc(NC[C@@H]2CCCN2)c(Oc2ccccc2OC)c1 [Cpd 11]
pEC50 [4]: 6.50 | pKi [1, 7]: 6.98

Structure (SMILES): COc1ccc(Oc2cc(CCc3cccc(OC)c3)ccc2NC[C@@H]2CCCN2)cc1 [Cpd 4]
pKi [1, 5]: 6.68
